# Laboratory results: the supplement of paper PMC4862054
# Legend:
# Conditions in all cases: incubation time: 72 h
# [1] = system: DU-4475; assay: drug sensitivity score (DSS), CellTiter-Glo (DSS (AUC-based score)); higher = stronger drug effect (viability inhibition or cytotoxicity); extreme values may be limits of the assay
# How it was run: (§1)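 Breast cancer cells were seeded into 384-well plates containing compound at 5 concentrations in 10-fold steps over a compound-specific 10,000-fold range and incubated 72 h. After CellTox Green and CellTiter-Glo readings, each plate was normalised to 0.1 % DMSO and a positive kill control. The drug sensitivity score rests on the area under the fitted dose-response curve.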
# [2] = system: BT-474; assay: as above
# How it was run: as §1
# [3] = system: HDQ-P1; assay: as above
# How it was run: as §1
# [4] = system: Hs578T; assay: as above
# How it was run: as §1
# [5] = system: SK-BR-3; assay: as above
# How it was run: as §1
# [6] = system: CAL-51; assay: as above
# How it was run: as §1
# [7] = system: HCC1599; assay: as above
# How it was run: as §1
# [8] = system: MDA-MB-231; assay: as above
# How it was run: as §1
# [9] = system: CAL-120; assay: as above
# How it was run: as §1
# [10] = system: CAL-85-1; assay: as above
# How it was run: as §1
# [11] = system: BT-474; assay: normalised viability (% of control), CellTiter-Blue; higher = more viable cells (about 100 = DMSO control)
# How it was run: (§2)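 Plates were quality-checked by Z'-factor and normalised to vehicle (100) and a positive kill control (0). The underlying assay incubated breast cancer cell lines for 72 h on 384-well plates with compound, then added 2.5 µl CellTiter-Blue for 2 h at 37 °C and read at 560/590 nm. The value is normalised viability at a single listed concentration of the series.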
# [12] = system: HDQ-P1; assay: as above
# How it was run: as §2
# [13] = system: MDA-MB-468; assay: as above
# How it was run: as §2
# [14] = system: Hs578T; assay: as above
# How it was run: as §2
# [15] = system: SK-BR-3; assay: as above
# How it was run: as §2
# [16] = system: CAL-148; assay: as above
# How it was run: as §2
# [17] = system: CAL-51; assay: as above
# How it was run: as §2
# [18] = system: HCC1143; assay: as above
# How it was run: as §2
# [19] = system: HCC1937; assay: as above
# How it was run: as §2
# [20] = system: HCC1599; assay: as above
# How it was run: as §2
# [21] = system: MDA-MB-231; assay: as above
# How it was run: as §2
# [22] = system: CAL-120; assay: as above
# How it was run: as §2
# [23] = system: MFM-223; assay: as above
# How it was run: as §2
# [24] = system: CAL-85-1; assay: as above
# How it was run: as §2
compound,measurement,setting,value
N#CCNC(=O)c1ccc(-c2ccnc(Nc3ccc(N4CCOCC4)cc3)n2)cc1 [Momelotinib],drug sensitivity score,[1],0
same,drug sensitivity score,[2],4.25
same,drug sensitivity score,[3],0
same,drug sensitivity score,[4],4.38
same,drug sensitivity score,[5],2.75
same,drug sensitivity score,[6],0
same,drug sensitivity score,[7],0
same,drug sensitivity score,[8],4.43
same,drug sensitivity score,[9],5.07
same,drug sensitivity score,[10],4.3
CS(=O)(=O)c1ccc(C2=C(c3ccccc3)C(=O)OC2)cc1 [Rofecoxib],drug sensitivity score,[1],0
same,drug sensitivity score,[2],0
same,drug sensitivity score,[3],0
same,drug sensitivity score,[4],0
same,drug sensitivity score,[5],0
same,drug sensitivity score,[6],0.464
same,drug sensitivity score,[7],0
same,drug sensitivity score,[8],0
same,drug sensitivity score,[9],0
same,drug sensitivity score,[10],0
O=C(CCCCCCC(=O)Nc1ccc([C@H]2O[C@@H](CSc3nc(-c4ccccc4)c(-c4ccccc4)o3)C[C@@H](c3ccc(CO)cc3)O2)cc1)NO [Tubacin],drug sensitivity score,[1],1.66
same,drug sensitivity score,[2],4.89
same,drug sensitivity score,[3],2.55
same,drug sensitivity score,[4],0
same,drug sensitivity score,[5],1.97
same,drug sensitivity score,[6],5.04
same,drug sensitivity score,[7],4.67
same,drug sensitivity score,[8],6.83
same,drug sensitivity score,[9],4.36
same,drug sensitivity score,[10],7.14
CC(=O)Nc1ccc(C(=O)Nc2ccccc2N)cc1 [CI-994],normalised viability,[11]; 1 nM,104%
same,normalised viability,[11]; 100 nM,117%
same,normalised viability,[11]; 1000 nM,97.4%
same,normalised viability,[12]; 0.3 nM,113%
same,normalised viability,[12]; 3 nM,125%
same,normalised viability,[12]; 10 nM,108%
same,normalised viability,[13]; 1 nM,99.6%
same,normalised viability,[13]; 100 nM,115%
same,normalised viability,[13]; 1000 nM,100%
same,normalised viability,[14]; 1 nM,119%
same,normalised viability,[14]; 100 nM,115%
same,normalised viability,[14]; 1000 nM,92.5%
same,normalised viability,[15]; 1 nM,103%
same,normalised viability,[15]; 100 nM,97.8%
same,normalised viability,[15]; 1000 nM,99.4%
same,normalised viability,[16]; 0.3 nM,104%
same,normalised viability,[16]; 3 nM,93.9%
same,normalised viability,[16]; 10 nM,101%
same,normalised viability,[17]; 0.3 nM,94.6%
same,normalised viability,[17]; 3 nM,94.6%
same,normalised viability,[17]; 10 nM,96.7%
same,normalised viability,[18]; 1 nM,113%
same,normalised viability,[18]; 100 nM,118%
same,normalised viability,[18]; 1000 nM,101%
same,normalised viability,[19]; 1 nM,86.9%
same,normalised viability,[19]; 100 nM,101%
same,normalised viability,[19]; 1000 nM,89.9%
same,normalised viability,[20]; 1 nM,104%
same,normalised viability,[20]; 100 nM,99.8%
same,normalised viability,[20]; 1000 nM,84.8%
same,normalised viability,[21]; 1 nM,104%
same,normalised viability,[21]; 100 nM,101%
same,normalised viability,[21]; 1000 nM,115%
same,normalised viability,[22]; 1 nM,99.9%
same,normalised viability,[22]; 100 nM,106%
same,normalised viability,[22]; 1000 nM,88.9%
same,normalised viability,[23]; 1 nM,107%
same,normalised viability,[23]; 100 nM,109%
same,normalised viability,[23]; 1000 nM,102%
same,normalised viability,[24]; 0.3 nM,104%
same,normalised viability,[24]; 3 nM,104%
same,normalised viability,[24]; 10 nM,101%
Cc1ccc(C(=O)Nc2ccc(CN3CCN(C)CC3)c(C(F)(F)F)c2)cc1C#Cc1cnc2cccnn12 [Ponatinib],normalised viability,[11]; 1 nM,102%
same,normalised viability,[11]; 100 nM,110%
same,normalised viability,[11]; 1000 nM,91.2%
same,normalised viability,[12]; 0.3 nM,102%
same,normalised viability,[12]; 3 nM,126%
same,normalised viability,[12]; 10 nM,115%
same,normalised viability,[13]; 1 nM,98.2%
same,normalised viability,[13]; 1000 nM,78.7%
same,normalised viability,[14]; 1 nM,105%
same,normalised viability,[14]; 100 nM,110%
same,normalised viability,[14]; 1000 nM,73.9%
same,normalised viability,[15]; 1 nM,104%
same,normalised viability,[15]; 100 nM,103%
same,normalised viability,[15]; 1000 nM,71.3%
same,normalised viability,[16]; 0.3 nM,96.8%
same,normalised viability,[16]; 3 nM,105%
same,normalised viability,[16]; 10 nM,110%
same,normalised viability,[17]; 0.3 nM,95.2%
same,normalised viability,[17]; 3 nM,97.7%
same,normalised viability,[17]; 10 nM,89.5%
same,normalised viability,[18]; 100 nM,113%
same,normalised viability,[18]; 1000 nM,98.8%
same,normalised viability,[19]; 1 nM,78.3%
same,normalised viability,[19]; 100 nM,115%
same,normalised viability,[20]; 1 nM,95.4%
same,normalised viability,[20]; 100 nM,95.4%
same,normalised viability,[20]; 1000 nM,64.9%
same,normalised viability,[21]; 1 nM,98.8%
same,normalised viability,[21]; 100 nM,82.6%
same,normalised viability,[21]; 1000 nM,16.9%
same,normalised viability,[22]; 1 nM,95.3%
same,normalised viability,[22]; 100 nM,85.4%
same,normalised viability,[22]; 1000 nM,13.8%
same,normalised viability,[23]; 1 nM,100%
same,normalised viability,[23]; 1000 nM,35.7%
same,normalised viability,[24]; 0.3 nM,92.5%
same,normalised viability,[24]; 3 nM,85.4%
same,normalised viability,[24]; 10 nM,101%
CCN(CCCOc1ccc2c(Nc3cc(CC(=O)Nc4cccc(F)c4)[nH]n3)ncnc2c1)CCOP(=O)(O)O [Barasertib],normalised viability,[11]; 1 nM,108%
same,normalised viability,[11]; 100 nM,95.1%
same,normalised viability,[11]; 1000 nM,92.1%
same,normalised viability,[12]; 0.3 nM,103%
same,normalised viability,[12]; 3 nM,106%
same,normalised viability,[12]; 10 nM,109%
same,normalised viability,[13]; 1 nM,115%
same,normalised viability,[13]; 100 nM,34.4%
same,normalised viability,[13]; 1000 nM,26.5%
same,normalised viability,[14]; 1 nM,106%
same,normalised viability,[14]; 100 nM,62.6%
same,normalised viability,[14]; 1000 nM,70.7%
same,normalised viability,[15]; 1 nM,107%
same,normalised viability,[15]; 100 nM,82.7%
same,normalised viability,[15]; 1000 nM,91.9%
same,normalised viability,[16]; 0.3 nM,98.4%
same,normalised viability,[16]; 3 nM,105%
same,normalised viability,[16]; 10 nM,39.7%
same,normalised viability,[17]; 0.3 nM,106%
same,normalised viability,[17]; 3 nM,103%
same,normalised viability,[17]; 10 nM,83.6%
same,normalised viability,[18]; 1 nM,124%
same,normalised viability,[18]; 100 nM,78.4%
same,normalised viability,[18]; 1000 nM,85.9%
same,normalised viability,[19]; 1 nM,69%
same,normalised viability,[19]; 100 nM,44.3%
same,normalised viability,[19]; 1000 nM,52.8%
same,normalised viability,[20]; 1 nM,79.4%
same,normalised viability,[20]; 100 nM,81.6%
same,normalised viability,[20]; 1000 nM,94.2%
same,normalised viability,[21]; 1 nM,110%
same,normalised viability,[21]; 100 nM,75.3%
same,normalised viability,[21]; 1000 nM,81.1%
same,normalised viability,[22]; 1 nM,111%
same,normalised viability,[22]; 100 nM,61.9%
same,normalised viability,[22]; 1000 nM,51.7%
same,normalised viability,[23]; 1 nM,103%
same,normalised viability,[23]; 100 nM,95.7%
same,normalised viability,[23]; 1000 nM,85.8%
same,normalised viability,[24]; 0.3 nM,102%
same,normalised viability,[24]; 3 nM,89.8%
same,normalised viability,[24]; 10 nM,93.2%
COc1cc2ncnc(Nc3ccc(F)c(Cl)c3)c2cc1NC(=O)/C=C/CN1CCCCC1 [Dacomitinib],drug sensitivity score,[1],0
same,drug sensitivity score,[2],0.458
same,drug sensitivity score,[3],8.45
same,drug sensitivity score,[4],0
same,drug sensitivity score,[5],14.6
same,drug sensitivity score,[6],0
same,drug sensitivity score,[7],0
same,drug sensitivity score,[8],0.139
same,drug sensitivity score,[9],0
same,drug sensitivity score,[10],8.62
O=C(O)c1ccc(-c2c[nH]c3ncc(-c4ccccc4)cc23)cc1C1CCCC1,drug sensitivity score,[1],0
same,drug sensitivity score,[2],0.507
same,drug sensitivity score,[3],0
same,drug sensitivity score,[4],0.128
same,drug sensitivity score,[5],2.12
same,drug sensitivity score,[6],0
same,drug sensitivity score,[7],0
same,drug sensitivity score,[8],0
same,drug sensitivity score,[9],0
same,drug sensitivity score,[10],0
